Measured values: a compilation of properties of binary mixtures (doi:10.1016/j.molliq.2018.09.007)

Assay: xn = mol fraction of the nth substance listed
Details: 100 kPa

CN(C)C=O + CC[n+]1ccn(C)c1.O=S(=O)([O-])C(F)(F)F
x1 = 1
Details	speed of sound [m/s]	viscosity [mPa·s]
303.15 K	1449.1	0.77
308.15 K	1435.2	0.72
313.15 K	1421.2	0.69
318.15 K	1407.2	0.65
323.15 K	1393.6	0.62

OCCO + CC[n+]1ccn(C)c1.O=S(=O)([O-])C(F)(F)F
x1 = 1
Details	speed of sound [m/s]	viscosity [mPa·s]
298.15 K	1655	16.39
303.15 K	1643.2	13.49
313.15 K	1619.7	9.34
323.15 K	1596.1	6.75

CC[n+]1ccn(C)c1.O=S(=O)([O-])C(F)(F)F + CN(C)C=O
Details	speed of sound [m/s]	viscosity [mPa·s]
298.15 K, x2 = 0.0917	1438.8	36.96
298.15 K, x2 = 0.2995	1444	20.94
298.15 K, x2 = 0.406	1446	14.56
298.15 K, x2 = 0.5094	1448.4	8.77
298.15 K, x2 = 0.5976	1450.6	6.17
298.15 K, x2 = 0.6947	1453.4	3.45
298.15 K, x2 = 0.7981	1457.5	2.59
298.15 K, x2 = 0.8957	1460.7	1.54
303.15 K, x2 = 0.0917	1427.6	31.13
303.15 K, x2 = 0.1933	1428.8	24.16
303.15 K, x2 = 0.2995	1430.7	17.86
303.15 K, x2 = 0.5094	1434.6	7.75
303.15 K, x2 = 0.5976	1436.5	5.52
303.15 K, x2 = 0.6947	1439.7	3.21
303.15 K, x2 = 0.7981	1443.5	2.38
303.15 K, x2 = 0.8957	1446.8	1.44
308.15 K, x2 = 0.0917	1416	26.42
308.15 K, x2 = 0.1933	1417.8	20.62
308.15 K, x2 = 0.2995	1419.1	15.36
308.15 K, x2 = 0.5094	1422.7	6.9
308.15 K, x2 = 0.5976	1424.4	4.98
308.15 K, x2 = 0.6947	1426.9	2.99
308.15 K, x2 = 0.7981	1429.7	2.19
308.15 K, x2 = 0.8957	1432.8	1.34
313.15 K, x2 = 0.0917	1404.6	22.67
313.15 K, x2 = 0.1933	1406.5	17.78
313.15 K, x2 = 0.2995	1408	13.34
313.15 K, x2 = 0.406	1409.7	9.57
313.15 K, x2 = 0.5094	1411	6.18
313.15 K, x2 = 0.6947	1414.6	2.78
313.15 K, x2 = 0.8957	1419.2	1.25
318.15 K, x2 = 0.406	1398.7	8.46
318.15 K, x2 = 0.5094	1399.7	5.57
318.15 K, x2 = 0.5976	1400.4	4.1
318.15 K, x2 = 0.7981	1403.5	1.88
318.15 K, x2 = 0.8957	1405.3	1.18
323.15 K, x2 = 0.0917	1382.3	17.12
323.15 K, x2 = 0.1933	1384	13.56
323.15 K, x2 = 0.2995	1386	10.31
323.15 K, x2 = 0.406	1387.4	7.53
323.15 K, x2 = 0.5094	1388	5.05
323.15 K, x2 = 0.5976	1388.9	3.75
323.15 K, x2 = 0.7981	1390.6	1.75
323.15 K, x2 = 0.8957	1392.1	1.11

CC[n+]1ccn(C)c1.O=S(=O)([O-])C(F)(F)F + OCCO
Details	speed of sound [m/s]	viscosity [mPa·s]
298.15 K, x2 = 0.0943	1446	36.77
298.15 K, x2 = 0.2021	1453.2	29.22
298.15 K, x2 = 0.2937	1457.1	24.13
298.15 K, x2 = 0.408	1464.6	20.68
298.15 K, x2 = 0.5013	1473.4	18.72
298.15 K, x2 = 0.6019	1488.5	17.52
298.15 K, x2 = 0.6917	1510.9	16.97
298.15 K, x2 = 0.8964	1586.6	16.51
303.15 K, x2 = 0.2021	1442.1	24.77
303.15 K, x2 = 0.2937	1445.9	20.6
303.15 K, x2 = 0.408	1453.3	17.93
303.15 K, x2 = 0.5013	1462.1	16.38
303.15 K, x2 = 0.6019	1477.2	15.41
303.15 K, x2 = 0.6917	1499.5	14.89
303.15 K, x2 = 0.798	1532.6	14.39
303.15 K, x2 = 0.8964	1575.1	13.74
308.15 K, x2 = 0.0943	1423.9	26.23
308.15 K, x2 = 0.2021	1430.9	21.17
308.15 K, x2 = 0.2937	1434.8	17.74
308.15 K, x2 = 0.408	1442.2	15.7
308.15 K, x2 = 0.5013	1451	14.49
308.15 K, x2 = 0.6917	1488.2	13.23
308.15 K, x2 = 0.798	1521.5	12.63
313.15 K, x2 = 0.0943	1412.8	22.47
313.15 K, x2 = 0.2021	1419.9	18.26
313.15 K, x2 = 0.2937	1423.8	15.41
313.15 K, x2 = 0.5013	1439.9	12.93
313.15 K, x2 = 0.6019	1454.8	12.31
313.15 K, x2 = 0.6917	1477	11.88
313.15 K, x2 = 0.798	1509.9	11.22
313.15 K, x2 = 0.8964	1552.1	10.22
318.15 K, x2 = 0.2021	1409.1	15.91
318.15 K, x2 = 0.2937	1412.9	13.52
318.15 K, x2 = 0.408	1420.2	12.38
318.15 K, x2 = 0.5013	1428.8	11.66
318.15 K, x2 = 0.6019	1443.7	11.17
318.15 K, x2 = 0.6917	1465.7	10.76
318.15 K, x2 = 0.798	1498.5	10.07
318.15 K, x2 = 0.8964	1540.6	8.97
323.15 K, x2 = 0.2937	1402	11.94
323.15 K, x2 = 0.5013	1417.9	10.58
323.15 K, x2 = 0.6019	1432.7	10.2
323.15 K, x2 = 0.6917	1454.6	9.84
323.15 K, x2 = 0.798	1487.2	9.13
323.15 K, x2 = 0.8964	1529.1	7.95
